According to PMC9378659, “Design and synthesis of new N-thioacylated ciprofloxacin derivatives as urease inhibitors with potential antibacterial activity” (Scientific Reports, 2022):
Values after ≈ are worked out from the molar mass of the structure shown. Read-outs that look alike come from different tables or passages of the source.

Legend:
[1] = target: T1, jack bean urease (JBU; EC 3.5.1.5) (Canavalia ensiformis, UniProt P07374); test: biochemical; settings: JB urease, mean ± SEM, at least three experiments
T1 construct: purchased Sigma-Aldrich
T1 sequence (P07374 whole entry, looked up): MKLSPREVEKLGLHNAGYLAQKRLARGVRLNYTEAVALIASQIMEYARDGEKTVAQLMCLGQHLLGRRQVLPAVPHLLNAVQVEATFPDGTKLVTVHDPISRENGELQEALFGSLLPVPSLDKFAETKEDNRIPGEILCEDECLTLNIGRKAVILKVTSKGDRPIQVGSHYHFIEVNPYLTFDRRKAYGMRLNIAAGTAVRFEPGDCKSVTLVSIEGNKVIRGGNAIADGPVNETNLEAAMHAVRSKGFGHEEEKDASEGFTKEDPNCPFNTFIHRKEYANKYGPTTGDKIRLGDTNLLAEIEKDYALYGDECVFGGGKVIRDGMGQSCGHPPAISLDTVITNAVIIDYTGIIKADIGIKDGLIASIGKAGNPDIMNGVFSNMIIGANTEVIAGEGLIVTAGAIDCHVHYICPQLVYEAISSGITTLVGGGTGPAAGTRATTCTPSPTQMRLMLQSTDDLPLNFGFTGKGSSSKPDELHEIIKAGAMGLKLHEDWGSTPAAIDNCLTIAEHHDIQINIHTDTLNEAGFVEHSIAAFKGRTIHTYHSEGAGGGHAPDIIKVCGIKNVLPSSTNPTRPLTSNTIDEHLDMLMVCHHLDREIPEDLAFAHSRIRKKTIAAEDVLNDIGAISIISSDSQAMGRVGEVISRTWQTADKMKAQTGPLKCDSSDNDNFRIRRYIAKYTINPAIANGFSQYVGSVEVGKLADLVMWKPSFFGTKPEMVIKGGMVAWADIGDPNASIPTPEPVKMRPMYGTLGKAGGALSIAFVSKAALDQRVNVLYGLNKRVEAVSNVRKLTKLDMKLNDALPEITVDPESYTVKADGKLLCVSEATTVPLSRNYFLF
Protocol: All chemicals and jack bean urease (JBU; EC 3.5.1.5) were purchased from Sigma-Aldrich. The urease inhibitory activity of N-thioacylated ciprofloxacin derivatives 3a–n was determined by Berthelot colorimetric method. The ammonia (NH3) produced by the urease enzyme along with indicator solutions including hypochlorite (OCl^−) and phenol make a blue-colored indophenol complex and the absorbance was measured at 625 nm by a Synergy H1 Hybrid multimode microplate reader (BioTek, Winooski, VT, USA).
Assay completed in two steps, at the first step the enzyme cocktail for each compound consisted of 50 µl urease enzyme (3 mg/ml in phosphate buffer, pH 7.4), 100 µl of test compound at different concentrations (0–10 mg/ml, in phosphate buffer, pH 7.4) and 850 µl urea solution (30 mM, in phosphate buffer, pH 7.4). This mixture was incubated at 37 °C for 30 min.
For the second step, each 100 µl of the above mixture was added to 500 µl of indicator solutions A (0.5 g phenol and 25 mg sodium nitroprusside in 500 ml distilled water) and 500 µl of B (2.5 g sodium hydroxide and 4.2 ml sodium hypochlorite (5%) in 500 ml distilled water) and further incubated at 37 °C for 30 min. The absorbance of blue-colored indophenol of each cell is related to the percentage of enzyme inhibition using the following equation: I%=1-T/C×100.
In this equation, I (%) is assigned to the percent of enzyme inhibition. (T) is assigned to the absorbance of our test compounds and C is assigned to the negative control absorbance which is the absorbance of our cocktail without any inhibitor compound. Thiourea and hydroxyurea were used as the positive controls. The IC50 values of test compounds were calculated using GraphPad PRISM 8.0 software (GraphPad, San Diego, CA, USA).

[2] = tested on: Escherichia coli ATCC 8739; test: Antibacterial activity, agar dilution MIC; type: cell-based; settings: ATCC8739
Protocol: (§1) Antibacterial activity of the synthesized compounds 3a–n were determined according to the agar dilution methods for Gram-positive bacteria strains (Staphylococcus aureus ATCC 6538 and Staphylococcus epidermidis ATCC 12228) and Gram-negative bacteria strains (Escherichia coli ATCC 8739 and Pseudomonas aeruginosa ATCC 9027).
(§2) Two Gram-positive bacteria strains (Staphylococcus aureus ATCC 6538 and Staphylococcus epidermidis ATCC 12228) and two Gram-negative bacteria strains (Escherichia coli ATCC 8739 and Pseudomonas aeruginosa ATCC 9027) were used for evaluation of the synthesized N-thioacylated ciprofloxacin derivatives 3a–n. All the strains were obtained from Iranian Microbial Collection (Pasteur Institute of Iran, Tehran, Iran). The antibacterial activity of the synthesized compounds was determined according to the agar dilution methods of the National Committee for Clinical Laboratory Standards[43].
(§3) Briefly, a series of twofold dilutions of test compounds 3a–n and ciprofloxacin, the standard antibiotic, were dissolved in 1 ml of DMSO. Each concentration was added to molten test agars that have been allowed to equilibrate in a water bath to 55 °C, to attain the concentrations ranging from 100 to 0.003 µg/ml. To compare the MIC values; the standard antibiotic, ciprofloxacin was also diluted in the same manner.
(§4) To prepare the inoculums suspensions, the bacteria were cultured on Muller-Hinton agar 12–16 h before the test. On the day of the experiment, a single colony of each bacteria was suspended Muller–Hinton broth to reach the turbidity of 0.5 McFarland standard (0.08–0.1 absorbance at 600 nm), which is approximately equivalent to 1.5 × 10^8 CFU/ml. The suspensions were then diluted at 1:10 in sterile saline to obtain a concentration of 1.5 × 10^7 CFU/ml. The plates were dot inoculated with 2 ul of each bacterial suspension and incubated at 37 °C overnight. The MIC was also defined as the lowest concentration of test compounds that completely prevents the growth of bacteria on agar plate following overnight incubation.

[3] = tested on: Pseudomonas aeruginosa ATCC 9027; test: Antibacterial activity, agar dilution MIC; type: cell-based; settings: ATCC9027, read-out: MIC P. aeruginosa
Protocol: as §1, §2, §3, §4

[4] = tested on: Staphylococcus aureus ATCC 6538; test: Antibacterial activity, agar dilution MIC; type: cell-based; settings: ATCC6538, read-out: MIC S. aureus
Protocol: as §1, §2, §3, §4

[5] = tested on: Staphylococcus epidermidis ATCC 12228; test: Antibacterial activity, agar dilution MIC; type: cell-based; settings: ATCC12228, read-out: MIC S. epidermidis
Protocol: as §1, §2, §3, §4

[6] = tested on: C. neoformans (H99); test: Anti-ureolytic assay, colorimetric microdilution in urea broth; type: cell-based; settings: Cryptococcus neoformans, urea broth pH 6
Protocol: (§5) The colorimetric microdilution technique using urea broth media (Merck, supplemented with glucose; pH 6 for C. neoformans) was used to determine the ureolytic activity of C. neoformans (H99), and clinical isolate of P. vulgaris treated with 3n according to previously reported procedures[18],[37].

[7] = tested on: clinical isolate of P. vulgaris; test: as above; type: cell-based; settings: Proteus vulgaris
Protocol: as §5

[8] = tested on: jack bean urease; parameters: method as in PMID 28574649; settings: read-out: IC50 against urease; cited from earlier work
[9] = tested on: urease; parameters: method as in PMID 34179623; settings: read-out: IC50 against urease; cited from earlier work
[10] = IC50 urease inhibitory activity
[11] = read-out: IC50 urease inhibitory activity

| Compound | IC50 [1, 10] [µM] | MIC [2] [µg/mL] | MIC [3] [µg/mL] | MIC [4] [µg/mL] | MIC [5] [µg/mL] | melting point [°C] | IC50 [6] [µg/mL] | IC50 [7] [µg/mL] | IC50 [8] [µM] | IC50 [1, 11] [µM] | IC50 [9] [µM] |
| --- | --- | --- | --- | --- | --- | --- | --- | --- | --- | --- | --- |
| O=C(O)c1cn(C2CC2)c2cc(N3CCN(C(=S)c4ccc(Cl)cc4)CC3)c(F)cc2c1=O [Compound 3e, 7-(4-(4-Chlorophenylcarbonothioyl)piperazin-1-yl)-1-cyclopropyl-6-fluoro-4-oxo-1,4-dihydroquinoline-3-carboxylic acid] | 6.55 ± 0.05 | 0.024 (≈ 0.0494 µM) | 0.781 (≈ 1.61 µM) | 0.048 (≈ 0.0988 µM) | 0.048 (≈ 0.0988 µM) | > 250 | – | – | – | – | – |
| O=C(O)c1cn(C2CC2)c2cc(N3CCN(C(=S)c4ccc(F)cc4)CC3)c(F)cc2c1=O [Compound 3d, 1-Cyclopropyl-6-fluoro-7-(4-(4-fluorophenylcarbonothioyl)piperazin-1-yl)-4-oxo-1,4-dihydroquinoline-3-carboxylic acid] | 2.94 ± 0.04 | 0.097 (≈ 0.207 µM) | 0.781 (≈ 1.66 µM) | 0.097 (≈ 0.207 µM) | 0.048 (≈ 0.102 µM) | > 250 | – | – | – | – | – |
| O=C(O)c1cn(C2CC2)c2cc(N3CCN(C(=S)c4cccc([N+](=O)[O-])c4)CC3)c(F)cc2c1=O [Compound 3g, 1-Cyclopropyl-6-fluoro-7-(4-(3-nitrophenylcarbonothioyl)piperazin-1-yl)-4-oxo-1,4-dihydroquinoline-3-carboxylic acid] | 5.87 ± 0.07 | 0.012 (≈ 0.0242 µM) | 0.39 (≈ 0.785 µM) | 0.024 (≈ 0.0483 µM) | 0.024 (≈ 0.0483 µM) | – | – | – | – | – | – |
| COc1cccc(C(=S)N2CCN(c3cc4c(cc3F)c(=O)c(C(=O)O)cn4C3CC3)CC2)c1 [Compound 3b, 1-Cyclopropyl-6-fluoro-7-(4-(3-methoxyphenylcarbonothioyl)piperazin-1-yl)-4-oxo-1,4-dihydroquinoline-3-carboxylic acid] | 17.02 ± 0.16 | 0.097 (≈ 0.201 µM) | 3.12 (≈ 6.49 µM) | 0.048 (≈ 0.0997 µM) | 0.024 (≈ 0.0498 µM) | > 250 | – | – | – | – | – |
| O=C(O)c1cn(C2CC2)c2cc(N3CCN(C(=S)c4ccc([N+](=O)[O-])cc4)CC3)c(F)cc2c1=O [Compound 3n, 1-Cyclopropyl-6-fluoro-7-(4-(4-nitrophenylcarbonothioyl)piperazin-1-yl)-4-oxo-1,4-dihydroquinoline-3-carboxylic acid] | 2.05 ± 0.03 | 0.097 (≈ 0.195 µM) | 1.56 (≈ 3.15 µM) | 0.781 (≈ 1.57 µM) | 0.39 (≈ 0.785 µM) | – | 5.59 ± 2.38 (≈ 11.3 µM) | 5.72 ± 1.31 (≈ 11.5 µM) | – | – | – |
| Cc1ccc(C(=S)N2CCN(c3cc4c(cc3F)c(=O)c(C(=O)O)cn4C3CC3)CC2)cc1 [Compound 3c, 1-Cyclopropyl-6-fluoro-7-(4-(4-methylphenylcarbonothioyl)piperazin-1-yl)-4-oxo-1,4-dihydroquinoline-3-carboxylic acid] | 20.63 ± 0.19 | 0.097 (≈ 0.208 µM) | 3.12 (≈ 6.71 µM) | 0.048 (≈ 0.103 µM) | 0.024 (≈ 0.0516 µM) | > 250 | – | – | – | – | – |
| O=C(O)c1cn(C2CC2)c2cc(N3CCNCC3)c(F)cc2c1=O [Ciprofloxacin] | – | < 0.003 | 0.048 (≈ 0.145 µM) | 0.024 (≈ 0.0724 µM) | 0.048 (≈ 0.145 µM) | – | – | – | – | – | – |
| NC(=S)N1N=C(c2cc3ccccc3oc2=O)CC1c1ccccc1 (centres unmarked) [Compound D] | – | – | – | – | – | – | – | – | 0.000358 ± 1.7e-05 | – | – |
| O=C(O)c1cn(C2CC2)c2cc(N3CCN(C(=S)c4cccc(Oc5ccccc5)c4)CC3)c(F)cc2c1=O [Compound 3k, 1-Cyclopropyl-6-fluoro-4-oxo-7-(4-(3-phenoxyphenylcarbonothioyl)piperazin-1-yl)-1,4-dihydroquinoline-3-carboxylic acid] | 32.49 ± 0.32 | 0.097 (≈ 0.178 µM) | 3.12 (≈ 5.75 µM) | 0.39 (≈ 0.717 µM) | 0.39 (≈ 0.717 µM) | > 250 | – | – | – | – | – |
| NC(=O)NO [Hydroxyurea, reference compound] | – | – | – | – | – | – | – | – | – | 100 ± 2.5 | – |
| O=C(O)c1cn(C2CC2)c2cc(N3CCN(C(=S)c4ccccc4)CC3)c(F)cc2c1=O [Compound 3a, 1-Cyclopropyl-6-fluoro-4-oxo-7-(4-(phenylcarbonothioyl)piperazin-1-yl)-1,4 dihydroquinoline-3-carboxylic acid] | 10.61 ± 0.09 | 0.048 (≈ 0.106 µM) | 6.25 (≈ 13.8 µM) | 0.048 (≈ 0.106 µM) | 0.024 (≈ 0.0532 µM) | > 250 | – | – | – | – | – |
| COc1ccc(C(=S)N2CCN(c3cc4c(cc3F)c(=O)c(C(=O)O)cn4C3CC3)CC2)cc1 [Compound 3f, 1-Cyclopropyl-6-fluoro-7-(4-(4-methoxyphenylcarbonothioyl)piperazin-1-yl)-4-oxo-1,4-dihydroquinoline-3-carboxylic acid] | 21.36 ± 0.08 | 0.097 (≈ 0.201 µM) | 3.12 (≈ 6.49 µM) | 0.024 (≈ 0.0498 µM) | 0.024 (≈ 0.0498 µM) | > 250 | – | – | – | – | – |
| O=C(O)c1cn(C2CC2)c2cc(N3CCN(C(=S)c4cccc(O)c4)CC3)c(F)cc2c1=O [Compound 3j, 1-Cyclopropyl-6-fluoro-7-(4-(3-hydroxyphenylcarbonothioyl)piperazin-1-yl)-4-oxo-1,4-dihydroquinoline-3-carboxylic acid] | 19.6 ± 0.17 | 0.024 (≈ 0.0513 µM) | 0.781 (≈ 1.67 µM) | 0.097 (≈ 0.207 µM) | 0.048 (≈ 0.103 µM) | > 250 | – | – | – | – | – |
| O=C(O)c1cn(C2CC2)c2cc(N3CCN(C(=S)c4cccc(F)c4)CC3)c(F)cc2c1=O [Compound 3h, 1-Cyclopropyl-6-fluoro-7-(4-(3-fluorophenylcarbonothioyl)piperazin-1-yl)-4-oxo-1,4-dihydroquinoline-3-carboxylic acid] | 4.08 ± 0.03 | < 0.003 | 0.048 (≈ 0.102 µM) | 0.048 (≈ 0.102 µM) | 0.097 (≈ 0.207 µM) | – | – | – | – | – | – |
| NC(N)=S [Thiourea] | – | – | – | – | – | – | – | – | 4.72 ± 0.174 | 23 ± 0.84 | 21.7 ± 0.34 |
| O=C(O)c1cn(C2CC2)c2cc(N3CCN(C(=S)c4cccc(Cl)c4)CC3)c(F)cc2c1=O [Compound 3m, 7-(4-(3-Chlorophenylcarbonothioyl)piperazin-1-yl)-1-cyclopropyl-6-fluoro-4-oxo-1,4-dihydroquinoline-3-carboxylic acid] | 12.2 ± 0.24 | 0.048 (≈ 0.0988 µM) | 6.25 (≈ 12.9 µM) | 0.048 (≈ 0.0988 µM) | 0.097 (≈ 0.2 µM) | > 250 | – | – | – | – | – |
| O=C(O)c1cn(C2CC2)c2cc(N3CCN(C(=S)c4ccc(Br)cc4)CC3)c(F)cc2c1=O [Compound 3l, 7-(4-(4-Bromophenylcarbonothioyl)piperazin-1-yl)-1-cyclopropyl-6-fluoro-4-oxo-1,4-dihydroquinoline-3-carboxylic acid] | 8.21 ± 0.06 | 0.028 (≈ 0.0528 µM) | 0.848 (≈ 1.6 µM) | 0.048 (≈ 0.0905 µM) | 0.048 (≈ 0.0905 µM) | > 250 | – | – | – | – | – |
| O=C(O)c1cn(C2CC2)c2cc(N3CCN(C(=S)c4ccccc4F)CC3)c(F)cc2c1=O [Compound 3i, 1-Cyclopropyl-6-fluoro-7-(4-(2-fluorophenylcarbonothioyl)piperazin-1-yl)-4-oxo-1,4-dihydroquinoline-3-carboxylic acid] | 15 ± 0.16 | 0.0195 (≈ 0.0415 µM) | 2.5 (≈ 5.32 µM) | 0.024 (≈ 0.0511 µM) | 0.024 (≈ 0.0511 µM) | > 250 | – | – | – | – | – |
